The source of these data is patent US8969363B2, “Heterocyclic compounds and uses thereof” (Infinity Pharmaceuticals, Inc., priority 2011, dated 2015).

Each structure is given as a SMILES string. Where two headings read alike, the source gives them in different places.

For orientation: IC50 means the concentration that inhibits the measured activity by half. A word on the EC50: it is the concentration needed to bring the measured effect to its halfway point. Lower therefore signals a more potent agent.

One data set concerns NZB/W F1 mice. As to conditions: prophylactic and therapeutic model; cited from earlier work.
A further data set has as its target T1, PI3Kα (Homo sapiens, UniProt P42336).
T1 construct: purchased Millipore Corporation 14-602-K
Kind of data set: PI3 Kinase HTRF assay, PI3Kα. As to conditions: 10 μM PIP2, 10 μM ATP; 'Greater than 10 μM' and 'Greater than 1 μM to 10 μM'; read-out: PI3K α IC50. Format: biochemical. The procedure, abridged:
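Recombinant PI3K converts 10 μM PIP2 with 10 μM ATP, 1 h at room temperature after 15 min compound preincubation, 2% DMSO. PIP3 detected by competitive HTRF with GRP1 PH domain; IC50 by nonlinear regression over 12 points, 20 μM to 0.1 nM.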
On the technique in general: TR-FRET usually uses a lanthanide donor and a delayed reading to cut background.

Data set [1] deals with phospho-AKT in RAJI cells (PI3Kδ). Kind of data set: PI3Kδ selective cellular assay: phospho-AKT in anti-human IgM stimulated RAJI cells. The data set is classed as cell-based. Particulars: read-out: IC50 for phospho-AKT, RAJI cell model. The source says:
A compound's ability in selectively inhibiting PI3Kδ can be assessed using RAJI cells, i.e., B lymphocyte cells derived from lymphoma patients. Briefly, serum-starved RAJI cells are stimulated with anti-human IgM, thereby causing signaling through the B-cell receptors, as described in, for example, He et al., Leukemia Research (2009) 33: 798-802. B-cell receptor signaling is important for the activation, differentiation, and survival of B cells and certain B-cell derived cancers. Reduction of phospho-AKT is indicative of compounds that may inhibit B-cell proliferation and function in certain diseases. By monitoring the reduction of phospho-AKT in stimulated RAJI cells (using for example, phospho-AKT antibodies), a compound's potential efficacy in selectively inhibiting PI3Kδ can be assessed.
Certain compounds provided herein (e.g., Compounds I-21, I-86, I-87, I-91, I-106, and III-13) were tested in RAJI cell model using procedures as described above.

In data set [2] the test system is phospho-AKT in SKOV-3 cells (PI3Kα). Kind of data set: PI3Kα selective cellular assay: phospho-AKT in SKOV-3 cells. Format: cell-based. Particulars: Homo sapiens. The source says: A compound's ability in selectively inhibiting PI3Kα can be assessed using SKOV-3 cells, i.e., human ovarian carcinoma cell line. Briefly, SKOV-3 cells, in which mutant PI3Kα is constitutively active, can be treated with test compounds. Test compounds' ability to inhibit AKT phosphorylation in SKOV-3 cells, therefore, is indicative of selective inhibition of PI3Kα. Thus, by monitoring the reduction of phospho-AKT in SKOV-3 cells (using for example, phospho-AKT antibodies), a compound's potential efficacy in selectively inhibiting PI3Kα can be assessed.
Certain compounds provided herein (e.g., Compounds I-21, I-86, I-87, I-91, and III-13) were tested in SKOV-3 cell model using procedures as described above.

For another data set, the system named is Balb/c splenic B cells. Kind of data set: B cell activation and proliferation assay (Alamar Blue). Format: cell-based. Particulars: Mus musculus, 'Less than 100 nM'. The essentials: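 Balb/c splenic B cells (Ficoll, then MACS purification; 50,000/well) were preincubated 30 min with compound at 0.2% final DMSO. They were then stimulated 72 h at 37 °C with a cocktail of 10 μg/ml LPS, or 5 μg/ml anti-mouse F(ab′)2 plus 2 ng/ml mouse IL4. Alamar Blue was read after 5 h at 560Ex/590Em, giving IC50 or EC50.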
(The colour change of resazurin is a common sign of viable cells or microbes.)

Data set [3] has as its system phospho-AKT in RAW 264.7 cells (PI3Kγ). In words: PI3Kγ selective cellular assay: phospho-AKT in C5a stimulated RAW 264.7 cells. Format: cell-based. As to conditions: Mus musculus. The source says:
A compound's ability in selectively inhibiting PI3Kγ can be assessed using RAW264.7 macrophages. Briefly, serum-starved PAW264.7 cells are stimulated with a known GPCR agonist C5a. (See, e.g., Camps et al., Nature Medicine (2005) 11(9): 936-943). Cells can be treated with test compounds prior to, simultaneously with, or subsequent to the stimulation by C5a. RAW 264.7 cells respond to the complement component fragment C5a through activation of the C5a receptor, and the C5a receptor activates macrophages and induces cell migration. Test compounds' ability to inhibit C5a-mediated AKT phosphorylation is indicative of selective inhibition of PI3Kγ. Thus, by monitoring the reduction of phospho-AKT in stimulated RAW 264.7 cells (using for example, phospho-AKT antibodies), a compound's potential efficacy in selectively inhibiting PI3Kγ can be assessed.
Certain compounds provided herein (e.g., Compounds I-21, I-86, I-87, I-91, I-106, and III-13) were tested in RAW 264.7 cell model using procedures as described above.

Data set [4] relates to phospho-AKT in 786-O cells (PI3Kβ). In words: PI3Kβ selective cellular assay: phospho-AKT in 786-O cells. Format: cell-based. Particulars: Homo sapiens, 786-0, read-out: IC50 for phospho-AKT, 786-O cell model. The source says: A compound's ability in selectively inhibiting PI3Kβ can be assessed using 786-O cells, i.e., human kidney carcinoma cell line. Briefly, 786-O cells, in which PI3Kβ is constitutively active, can be treated with test compounds. Test compounds' ability to inhibit AKT phosphorylation in 786-O cells, therefore, is indicative of selective inhibition of PI3Kβ. Thus, by monitoring the reduction of phospho-AKT in 786-O cells (using for example, phospho-AKT antibodies), a compound's potential efficacy in selectively inhibiting PI3Kβ can be assessed.
Certain compounds provided herein (e.g., Compounds I-21, I-86, I-87, I-91, and III-13) were tested in 786-O cell model using procedures as described above.

In the next data set the target is PI3Kβ. In words: PI3 Kinase HTRF assay, PI3Kβ. Format: biochemical, human. As to conditions: 10 μM PIP2, 10 μM ATP; 'Greater than 10 μM' and 'Greater than 1 μM to 10 μM'; read-out: PI3K β IC50. The procedure, abridged:
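Recombinant PI3Kβ converting PIP2 (10 μM) to PIP3 with 10 μM ATP; PIP3 detected by competitive HTRF displacement of biotin-PIP3/GST-GRP1 PH domain complex. Emission ratios converted to % inhibition; IC50 by nonlinear regression.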

Another data set has as its system B6.Sle1z.Sle3z model. As to conditions: cited from earlier work.
For data set [5] the following is noted: PBS pH 7.4, 37° C., 24 hours; cited from earlier work.
The subject of data set [6] is p190 transduced leukemic cells in mice. Particulars: about 70 mg/kg twice daily; cited from earlier work.
The conditions of data set [7]: control compounds, 5 μM; cited from earlier work.
The mark [8] stands for this setting: SK-OV-3, read-out: IC50 for phospho-AKT, SKOV-3 cell model.
Setting [9] is: RAW264.7, range with units in value, read-out: IC50 for phospho-AKT, RAW 264.7 cell model.
Setting [10] is: RAW264.7, read-out: IC50 for phospho-AKT, RAW 264.7 cell model.

Chain of PI3Kβ (Q8BTI9 whole entry, the tested form may be a part): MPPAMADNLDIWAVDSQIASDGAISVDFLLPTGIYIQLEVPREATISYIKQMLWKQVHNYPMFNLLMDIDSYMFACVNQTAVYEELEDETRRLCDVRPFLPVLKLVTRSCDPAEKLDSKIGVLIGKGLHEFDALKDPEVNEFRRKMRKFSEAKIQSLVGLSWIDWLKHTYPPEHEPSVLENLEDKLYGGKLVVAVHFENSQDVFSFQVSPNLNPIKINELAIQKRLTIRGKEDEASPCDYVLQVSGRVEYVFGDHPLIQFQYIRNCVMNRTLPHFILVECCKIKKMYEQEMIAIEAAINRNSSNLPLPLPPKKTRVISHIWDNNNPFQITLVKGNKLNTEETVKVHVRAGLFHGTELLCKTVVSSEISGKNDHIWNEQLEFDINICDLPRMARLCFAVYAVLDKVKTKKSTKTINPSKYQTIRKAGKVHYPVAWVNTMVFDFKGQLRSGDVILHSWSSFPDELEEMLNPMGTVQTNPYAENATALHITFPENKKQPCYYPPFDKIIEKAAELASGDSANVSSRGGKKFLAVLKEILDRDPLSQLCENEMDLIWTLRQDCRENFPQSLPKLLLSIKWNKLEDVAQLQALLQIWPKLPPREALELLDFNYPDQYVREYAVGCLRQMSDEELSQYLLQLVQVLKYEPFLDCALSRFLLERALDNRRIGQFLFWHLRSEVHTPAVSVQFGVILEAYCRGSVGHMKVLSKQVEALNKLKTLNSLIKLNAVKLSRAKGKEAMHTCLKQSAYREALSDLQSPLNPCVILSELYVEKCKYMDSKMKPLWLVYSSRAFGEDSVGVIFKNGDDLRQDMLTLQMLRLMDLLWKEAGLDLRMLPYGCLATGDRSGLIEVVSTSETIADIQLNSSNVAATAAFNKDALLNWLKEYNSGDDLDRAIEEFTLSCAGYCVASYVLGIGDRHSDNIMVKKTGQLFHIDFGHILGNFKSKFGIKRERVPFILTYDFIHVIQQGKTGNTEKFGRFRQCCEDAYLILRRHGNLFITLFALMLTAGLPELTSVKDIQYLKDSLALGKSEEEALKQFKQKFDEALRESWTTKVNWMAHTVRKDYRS
T1 sequence (P42336 whole entry): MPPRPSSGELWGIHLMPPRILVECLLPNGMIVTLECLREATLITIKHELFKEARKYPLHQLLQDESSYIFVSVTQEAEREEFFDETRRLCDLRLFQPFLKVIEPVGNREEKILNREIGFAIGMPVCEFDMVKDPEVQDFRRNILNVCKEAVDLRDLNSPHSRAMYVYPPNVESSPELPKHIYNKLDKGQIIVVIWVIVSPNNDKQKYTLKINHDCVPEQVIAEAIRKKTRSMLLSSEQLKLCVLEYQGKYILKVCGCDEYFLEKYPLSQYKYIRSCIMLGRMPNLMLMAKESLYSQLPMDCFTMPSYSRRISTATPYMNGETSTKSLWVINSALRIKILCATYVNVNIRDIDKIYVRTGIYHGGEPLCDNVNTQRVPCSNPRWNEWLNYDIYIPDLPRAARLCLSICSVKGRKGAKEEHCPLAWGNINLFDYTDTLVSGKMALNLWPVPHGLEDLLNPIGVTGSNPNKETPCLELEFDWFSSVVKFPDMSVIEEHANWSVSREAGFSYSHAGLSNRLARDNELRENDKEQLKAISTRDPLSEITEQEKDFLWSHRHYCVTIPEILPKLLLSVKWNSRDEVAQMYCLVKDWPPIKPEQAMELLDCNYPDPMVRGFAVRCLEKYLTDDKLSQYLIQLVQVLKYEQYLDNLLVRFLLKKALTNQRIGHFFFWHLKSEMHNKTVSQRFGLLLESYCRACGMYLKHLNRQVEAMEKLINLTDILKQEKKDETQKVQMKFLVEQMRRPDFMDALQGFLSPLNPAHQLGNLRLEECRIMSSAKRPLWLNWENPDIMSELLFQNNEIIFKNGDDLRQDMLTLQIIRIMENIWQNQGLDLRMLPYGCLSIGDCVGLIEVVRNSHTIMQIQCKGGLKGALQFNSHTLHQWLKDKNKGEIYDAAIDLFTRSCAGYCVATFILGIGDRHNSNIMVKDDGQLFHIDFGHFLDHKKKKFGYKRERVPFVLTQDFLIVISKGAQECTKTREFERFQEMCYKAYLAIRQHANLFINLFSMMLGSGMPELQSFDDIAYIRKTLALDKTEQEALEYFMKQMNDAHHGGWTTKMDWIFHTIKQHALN
T1 sequence (P27986 whole entry partner): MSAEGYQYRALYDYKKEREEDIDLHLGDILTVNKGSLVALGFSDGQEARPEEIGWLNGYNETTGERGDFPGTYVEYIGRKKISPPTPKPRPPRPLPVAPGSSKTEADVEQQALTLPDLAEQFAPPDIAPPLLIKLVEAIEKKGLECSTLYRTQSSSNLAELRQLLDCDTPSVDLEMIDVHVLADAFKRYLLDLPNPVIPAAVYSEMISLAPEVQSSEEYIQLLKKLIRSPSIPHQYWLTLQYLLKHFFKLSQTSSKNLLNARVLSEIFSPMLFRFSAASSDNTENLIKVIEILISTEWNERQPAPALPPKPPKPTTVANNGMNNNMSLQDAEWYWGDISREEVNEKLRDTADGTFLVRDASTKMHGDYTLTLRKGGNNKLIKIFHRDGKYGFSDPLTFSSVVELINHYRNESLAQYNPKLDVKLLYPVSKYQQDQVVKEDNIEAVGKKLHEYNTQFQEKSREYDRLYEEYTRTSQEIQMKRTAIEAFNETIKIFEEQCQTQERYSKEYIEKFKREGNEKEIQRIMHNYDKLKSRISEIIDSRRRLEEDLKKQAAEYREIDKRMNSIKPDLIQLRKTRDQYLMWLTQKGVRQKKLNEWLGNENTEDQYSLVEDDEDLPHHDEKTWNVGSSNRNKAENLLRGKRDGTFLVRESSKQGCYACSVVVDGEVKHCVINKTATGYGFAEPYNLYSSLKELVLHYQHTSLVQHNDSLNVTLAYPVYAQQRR

For `CC(C)C[C@H](NC(=O)[C@H](Cc1ccccc1)NC(=O)c1cnccn1)B(O)O` [Bortezimib, bortezomib], the “disease in the NZB/W model” value in the data set with NZB/W F1 mice is reported as “effective at blocking disease in the NZB/W model”.

Consider `C[C@H](Nc1ncnc2cccnc12)c1cc2cccc(-c3cnn(C)c3)c2c(=O)n1-c1ccccc1` [Compound I-21], for which the IC50 at PI3Kα is 1 to 10 µM; in data set [1], less than 0.1 µM; in data set [2] (setting [8]), 1 to 10 µM; in data set [3] (setting [9]) it was 0.1 to 1 µM; in [4], 1 to 10 µM; at PI3Kβ, more than 10 µM. The compound further had an EC50 with Balb/c splenic B cells of less than 0.1 µM.

Regarding `COc1ncc(-c2cccc3nc([C@H](C)Nc4nc(N)nc5cccnc45)n(-c4ccccc4)c(=O)c23)cn1` [Compound I-86], the IC50 was 1 to 10 µM on PI3Kα; less than 0.1 µM in [1]; 1 to 10 µM in data set [2] (setting [8]); less than 0.1 µM in data set [3] (setting [10]); 1 to 10 µM in [4]; more than 10 µM at PI3Kβ. This compound returned an EC50 in the data set on Balb/c splenic B cells of less than 0.1 µM.

On to `C[C@H](Nc1nc(N)nc2cccnc12)c1nc2cccc(-c3cnn(C)c3)c2c(=O)n1-c1ccccc1` [Compound I-87], for which the IC50 on PI3Kα was 1 to 10 µM; in [1] it was less than 0.1 µM; in data set [2] (SK-OV-3, range with units in value, read-out: IC50 for phospho-AKT, SKOV-3 cell model) it was 0.1 to 1 µM; in [3] (setting [10]), less than 0.1 µM; in data set [4], 1 to 10 µM; at PI3Kβ it was more than 10 µM. Also, the EC50 in the data set on Balb/c splenic B cells was less than 0.1 µM.

With `Cc1ncc(-c2cccc3nc([C@H](C)Nc4nc(N)nc5cccnc45)n(-c4ccccc4)c(=O)c23)cn1` [Compound I-91, (S)-2-(1-((2-aminopyrido[3,2-d]pyrimidin-4-yl)amino)ethyl)-5-(2-methylpyrimidin-5-yl)-3-phenylquinazolin-4(3H)-one], the IC50 at PI3Kα is 1 to 10 µM; in data set [1], less than 0.1 µM; in [2] (setting [8]), 1 to 10 µM; in [3] (setting [10]) it was less than 0.1 µM; in data set [4], 1 to 10 µM; on PI3Kβ, more than 10 µM. Moreover, the EC50 in the data set on Balb/c splenic B cells was less than 0.1 µM.

For `C[C@H](Nc1ncnc2[nH]cnc12)c1cc2cccc(C(F)(F)F)c2c(=O)n1-c1cccc(F)c1` [III-13], the IC50 at PI3Kα was 1 to 10 µM; in data set [1], less than 0.1 µM; in data set [2] (setting [8]) it was 1 to 10 µM; in [3] (setting [9]), 0.1 to 1 µM; in data set [4], 1 to 10 µM; on PI3Kβ, 1 to 10 µM. The EC50 in the data set with Balb/c splenic B cells was less than 0.1 µM.

As to `CO[C@H]1C[C@@H]2CC[C@@H](C)[C@@](O)(O2)C(=O)C(=O)N2CCCC[C@H]2C(=O)O[C@H]([C@H](C)C[C@@H]2CC[C@@H](OCCO)[C@H](OC)C2)CC(=O)[C@H](C)/C=C(\C)[C@@H](O)[C@@H](OC)C(=O)[C@H](C)C[C@H](C)/C=C/C=C/C=C/1C` [RAD001, everolimus], in the data set on B6.Sle1z.Sle3z model, the lupus symptoms result is given as “ameliorate lupus symptoms”.

In the case of `O=C(O)CCCc1ccc(N(CCCl)CCCl)cc1` [chlorambucil], the chemical stability entry in [5] is “largely hydrolyzed over the course of 24 hours”.

Regarding `Cc1ccc(NC(=O)c2ccc(CN3CCN(C)CC3)cc2)cc1Nc1nccc(-c2cccnc2)n1` [imatinib], the leukemogenesis entry in data set [6] is “delay but not cure leukemogenesis”.

Turning to `CC(C)[N+](C)(CCOC(=O)C1c2ccccc2Oc2ccccc21)C(C)C` [propantheline], the plasma stability result in data set [7] is “intermediate plasma stability”.

On to `CCCOc1cc(N)ccc1C(=O)OCCN(CC)CC` [propoxycaine], for which, in data set [7], the plasma stability entry is recorded as “low plasma stability”.
